Measured values reported in publication PMC11960969, “Mdga2 deficiency leads to an aberrant activation of BDNF/TrkB signaling that underlies autism-relevant synaptic and behavioral changes in mice” (PLOS Biology, 2025).

Assays:
Format in all cases: in vivo, mouse
[1] = system: mice; test: Self-grooming test; conditions: Mdga2+/- mice, chronic 0.5 mg/kg i.p.; Test 1 Interaction F(1,56) = 0.1344, p = 0.7153; Test 2 F(1,56) = 0.2389, p = 0.6269
Protocol: (§1) Six- to eight-week-old male mice were subjected to various behavioral tests. Mice were allowed to acclimatize in the testing room for 1 h prior to each test. Data were recorded and analyzed using Smart 3.0 video tracking system (Panlab, Harvard Apparatus).
Tested mice were placed individually in a clean cage with fresh bedding. After 5 min of habituation, the spontaneous behaviors of mice were recorded for 30 min and their self-grooming behavior was analyzed.

[2] = system: mice; test: Three-chamber test (sociability and social novelty)
Protocol: as §1
This test was performed as described previously with minor modifications. The apparatus (60 W × 40 D × 22 H cm) has two transparent partitions separating the left, the middle, and the right chambers (20 × 40 cm each), and each partition has a small opening (5 × 5 cm) for access to each chamber. A fixed wire cylinder (8.5 cm diameter) was placed in each of the left and the right chambers. This test consisted of three phases: habituation, sociability test, and social novelty test. During habituation, both left and right cylinders were empty, and tested mice were placed in the center and allowed to explore freely for 10 min. During the sociability test, a gender-matched strange mouse (S1) was enclosed in one empty cylinder, and mice were allowed to freely explore for 10 min. Their time spent sniffing S1 or the other empty cylinder (E) was measured and the sociability preference index (T(S1 − -E)/T(S1 + E): time spent sniffing S1 minus time spent sniffing E over time spent sniffing both S1 and E) was calculated for comparison. During the social novelty test, another gender-matched unfamiliar mouse (S2) was placed into the empty cylinder and mice were allowed to freely explore for another 10 min. Their time spent sniffing S1 or S2 was measured and the social novelty preference index (T(S2 − S1)/T(S2 + S1): time spent sniffing S2 minus time spent sniffing S1 over time spent sniffing both S2 and S1) was calculated for comparison.

[3] = system: TrkB signaling; test: Time course of TrkB signaling inhibition in cerebrum after i.p. ANA-12 (immunoblotting); conditions: 0.5 mg/kg i.p., WT and Mdga2-/- mice, S4A Fig
Protocol: Equal protein amounts of total lysates from cells or mouse tissues were subjected to SDS-PAGE and immunoblotted with antibodies indicated. For Co-IP, 1 mg of protein lysates were incubated with antibodies indicated and Protein G Agarose (ThermoFisher, Cat# 20399) beads at 4 °C overnight, and immunoprecipitated proteins were then subjected to SDS-PAGE and immunoblotting. Uncropped immunoblotting images are shown in S1 Raw Images.
ANA-12 was dissolved in saline containing 10% DMSO to a final concentration of 0.5 mg/kg and intraperitoneally administered into male mice. For chronic treatment, ANA-12 was administered to 3-week-old male mice at twice/week for 3 weeks until mice reached 6 weeks of age. […]
Supplementary file pbio.3003047.s004.tif: S4 Fig Acute ANA-12 treatment temporarily rescues social deficits in Mdga2 ^+/− mice. […] (C–G) Mice were analyzed for their total travel distance in the open field test (C), their discrimination index in the novel location recognition test (D), their time spent self-grooming and bouts of self-grooming (E), their sniffing time in the social affiliation test (F), and their sociability and social novelty preferences in the three-chamber test (G). n = 15 mice per group. […] P-values were determined by two-way ANOVA with Tukey’s multiple comparisons test. ns: not significant, *p < 0.05, **p < 0.01, ***p < 0.001, ns: not significant. […]

O=C(Nc1ccccc1C(=O)NC1CCCCNC1=O)c1cc2ccccc2s1 (stereo not drawn) [ANA-12, reference compound]
repetitive self-grooming behavior [1]: no rescuing effect on repetitive self-grooming behavior | impaired sociability and social novelty deficits (three-chamber) ([2]; AAV-Mdga2 shRNA mice, ANA-12 0.5 mg/kg i.p. twice per week 3 weeks, n = 10, Fig 6D): rescued impaired sociability and social novelty deficits | sociability preference ([2]; Mdga2+/- mice, acute 0.5 mg/kg i.p. 3 days, acute Test 1: Interaction F(1,56) = 9.336, p = 0.0034): significantly higher sociability preference when compared to controls in acute Test 1 | impaired sociability and social novelty ([2]; Mdga2+/- mice, chronic 0.5 mg/kg i.p., chronic Test 1, sociability F(1,56) = 13.52, p = 0.0005, novelty F(1,56) = 3.144, p = 0.0817): significantly improved impaired sociability and social novelty | impaired sociability ([2]; Mdga2+/- mice, chronic 0.5 mg/kg i.p., chronic Test 2, Interaction F(1,56) = 7.339, p = 0.0089): significantly improved impaired sociability in Mdga2^ +/− mice in chronic Test 2 | time of main TrkB signaling inhibition after treatment [3]: 16 to 24 h
